From patent US20060160863A1, “Polymorphic and amorphous forms of 2-{3-[(E)-2-(4,6-dimethyl-pyridin-2-yl)-vinyl]-1H-indazol-6-ylamino}-N-(4-hydroxy-but-2-ynyl)benzamide” (AGOURON PHARMACEUTICALS, INC., priority 2005, published 2006)
In brackets after ≈: the same amount, converted by molar mass.

Assay: aqueous solubility in 0.1 M sodium phosphate buffer (pH 7.4)
Assay type: physicochemical
From the text: The present invention provides several polymorph crystalline forms and an amorphous form of the compound of Formula I. Each crystalline or amorphous form of the compound can be characterized by one or more of the following: X-ray powder diffraction pattern (i.e., X-ray diffraction peaks at various diffraction angles (2θ), melting point onset (and onset of dehydration for hydrated forms) as illustrated by endotherms of a Differential Scanning Calorimetry (DSC) thermogram, aqueous solubility, light stability under International Conference on Harmonization (ICH) high intensity light conditions, and physical and chemical storage stability.

SMILES | aqueous solubility [µg/mL]
Cc1cc(C)nc(/C=C/c2n[nH]c3cc(Nc4ccccc4C(=O)NCC#CCO)ccc23)c1 [Form Ia, 2-{3-[(E)-2-(4,6-dimethyl-pyridin-2-yl)-vinyl]-1H-indazol-6-ylamino}-N-(4-hydroxy-but-2-ynyl)-benzamide] | 0.8 (≈ 1.77 µM)
Cc1cc(C)nc(/C=C/c2n[nH]c3cc(Nc4ccccc4C(=O)NCC#CCO)ccc23)c1 [Form IV, 2-{3-[(E)-2-(4,6-dimethyl-pyridin-2-yl)-vinyl]-1H-indazol-6-ylamino}-N-(4-hydroxy-but-2-ynyl)-benzamide] | 1.3 (≈ 2.88 µM)
Cc1cc(C)nc(/C=C/c2n[nH]c3cc(Nc4ccccc4C(=O)NCC#CCO)ccc23)c1 [Form II, 2-{3-[(E)-2-(4,6-dimethyl-pyridin-2-yl)-vinyl]-1H-indazol-6-ylamino}-N-(4-hydroxy-but-2-ynyl)-benzamide] | 1.3 (≈ 2.88 µM)
Cc1cc(C)nc(/C=C/c2n[nH]c3cc(Nc4ccccc4C(=O)NCC#CCO)ccc23)c1 [Form III, 2-{3-[(E)-2-(4,6-dimethyl-pyridin-2-yl)-vinyl]-1H-indazol-6-ylamino}-N-(4-hydroxy-but-2-ynyl)-benzamide] | 3.2 (≈ 7.09 µM)
